From patent US20130345199A1, “1-[M-CARBOXAMIDO(HETERO)ARYL-METHYL]-PIPERIDINE-4-CARBOXAMIDE DERIVATIVES” (Actelion Pharmaceuticals Ltd., priority 2012, published 2013)

Target: T1, CXCR7 (Homo sapiens, UniProt P25106)
T1 construct: host or cells: CHO-K1 (PathHunter CXCR7 b-arrestin cell line, stably transfected)
Test: PathHunter CHO-K1 CXCR7 b-arrestin assay (agonistic activity)
Assay type: cell-based
Conditions: PathHunter CHO-K1 CXCR7 b-arrestin cell line, 90 minutes at 37° C.

T1 sequence (P25106 whole entry): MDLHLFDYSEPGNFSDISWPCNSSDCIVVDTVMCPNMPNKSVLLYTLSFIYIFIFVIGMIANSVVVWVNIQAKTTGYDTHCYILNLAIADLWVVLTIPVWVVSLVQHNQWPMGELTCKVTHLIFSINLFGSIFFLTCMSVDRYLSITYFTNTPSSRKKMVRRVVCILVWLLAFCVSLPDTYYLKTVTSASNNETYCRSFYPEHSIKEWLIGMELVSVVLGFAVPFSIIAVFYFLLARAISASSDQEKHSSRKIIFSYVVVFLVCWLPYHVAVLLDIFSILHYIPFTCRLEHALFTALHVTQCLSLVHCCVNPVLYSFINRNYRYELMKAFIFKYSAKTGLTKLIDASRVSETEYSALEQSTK

Compound | EC50
COc1cncc(C(=O)Nc2cccc(CN3CCC(C(=O)N(C)CC(C)C)CC3)c2)c1 [Example 4.015, N-{3-[4-(Isobutyl-methyl-carbamoyl)-piperidin-1-ylmethyl]-phenyl}-5-methoxy-nicotinamide] | 19 nM
O=C(Nc1ccc(F)c(CN2CCC(C(=O)NC3CCCCC3)CC2)c1)c1cccc(C(F)(F)F)n1 [Example 4.016, 6-Trifluoromethyl-pyridine-2-carboxylic acid [3-(4-cyclohexylcarbamoyl-piperidin-1-ylmethyl)-4-fluoro-phenyl]-amide] | 3 nM
CC(C)(C)NC(=O)C1CCN(Cc2cc(NC(=O)c3cccc(C(F)(F)F)n3)ccc2F)CC1 [Example 4.017, 6-Trifluoromethyl-pyridine-2-carboxylic acid [3-(4-tert-butylcarbamoyl-piperidin-1-ylmethyl)-4-fluoro-phenyl]-amide] | 2 nM
Cc1cncc(C(=O)Nc2ccc(F)c(CN3CCC(C(=O)NC4CCCCC4)CC3)c2)c1 [Example 4.018, N-[3-(4-Cyclohexylcarbamoyl-piperidin-1-ylmethyl)-4-fluoro-phenyl]-5-methyl-nicotinamide] | 11 nM
Cc1cncc(C(=O)Nc2ccc(F)c(CN3CCC(C(=O)NC(C)(C)C)CC3)c2)c1 [Example 4.019, N-[3-(4-tert-Butylcarbamoyl-piperidin-1-ylmethyl)-4-fluoro-phenyl]-5-methyl-nicotinamide] | 8 nM
CC(C)(C)NC(=O)C1CCN(Cc2cc(NC(=O)c3cccc(C(F)(F)F)n3)ncn2)CC1 [Example 5.001, 6-Trifluoromethyl-pyridine-2-carboxylic acid [6-(4-tert-butylcarbamoyl-piperidin-1-ylmethyl)-pyrimidin-4-yl]-amide] | 29 nM
N-[3-(4-Cyclopropylcarbamoyl-piperidin-1-ylmethyl)-phenyl]-6-methyl-nicotinamide [Example 1.202] | 145 nM
N-[3-(4-tert-Butylcarbamoyl-piperidin-1-ylmethyl)-phenyl]-5-methoxy-nicotinamide [Example 4.014] | 8 nM
rac-2-Methyl-pyrimidine-4-carboxylic acid {3-[1-(4-cyclohexylcarbamoyl-piperidin-1-yl)-ethyl]-phenyl}-amide [Example 1.197] | 15 nM
